Test results as given in PubChem BioAssay AID2060352 (Molecular Pharmacology Branch, DTP, NCI, 2025).

Tested on: 616215-338-R-J1-PDC spheroid with HUVEC/MSC, viability
Assay: Anticancer human tumor 616215-338-R-J1-PDC patient-derived colon adenocarcinoma cell line growth inhibition [TAK]
Conditions: for IC50: curve of first compound; for viability, T/C: stronger effect = lower value
From the text: Combinatorial screen of targeted agents with TAK-243 and ipatasertib in multi-cell type tumor spheroids
A high-throughput screen of multi-cell type tumor spheroids was designed to identify active combinations of targeted small molecules and TAK-243 or ipatasertib. Complex spheroids include a stromal component modeled by human endothelial cells (HUVEC) and fibroblasts modeled by human mesenchymal stem cells (MSCs). The concentration ranges selected for each drug and investigational agent were based upon clinically achievable concentrations if the clinical Cmax of the agent was known.
Compounds. The drugs and investigational agents: TAK-243 (785004), ipatasertib (767898), everolimus (733504), selumetinib (741078), bortezomib (756655), trametinib (758246), ixazomib (758254), vemurafenib (761431), dabrafenib (764134), sapanisertib (764658), alpelisib (765974), and copanlisib (816437), were obtained from the National Cancer Institute (NCI) Developmental Therapeutics Program Chemical Repository. The FDA-approved anticancer drug set is available from the NCI Developmental Therapeutics Program. […] The stock solutions were prepared in dimethyl sulfoxide (DMSO, Sigma-Aldrich, St. Louis, MO, cat. D2650) at 800-fold the tested concentration and stored at -70 degrees C prior to their use. All drugs and investigational agents were tested over a range starting from a high concentration at or near the clinical Cmax and decreasing in half-log increments. If the clinical Cmax for an agent had not been determined, the highest concentration tested was 10 microM.
NCI60 Cell Culture. NCI60 cell lines were obtained from the NCI Developmental Therapeutics Program Tumor Repository. For each lot of cells, the Repository performed Applied Biosystems AmpFLSTR Identifiler testing with PCR amplification to confirm consistency with the published Identifier STR profile for each cell line. Cells were kept in continuous culture for no more than 20 passages. The optimal seeding densities for each of the cell lines at each time point assessed were determined prior to performing the concentration response studies. Briefly, the NCI60 human tumor lines were grown as monolayers in RPMI 1640 medium supplemented with 10% FBS and 2 mmol/L L-glutamine.
An additional 2 lines were from the NCI60 cell line panel including melanomas, MALME-3M and SK-MEL-2. Pooled donor human umbilical vein endothelial cells (HUVEC, Lonza, cat. CC-2519) and human mesenchymal stem cells (hMSC, Lonza, cat. PT-2501) were purchased from Lonza (Walkersville, MD).
PDMR cell lines were grown in complete medium (DC medium): Dulbecco's modified Eagle's medium (DMEM)/F12 supplemented with 5% fetal bovine serum (FBS), 2 mM L-glutamine, 100 U/mL penicillin and 100 µg/ml streptomycin, 0.4 µg/ml hydrocortisone, 10 ng/ml epidermal growth factor (EGF) recombinant human protein, 24 µg/mL adenine, and 0.1 mg/mL primocin. During culture from frozen stock vials, PDMR cells were cultured in the same medium containing 10 µM Y-27632 (see Table 3). The PDCs were cultured in complete DMEM/F12 media without 10 microM Y-27632 dihydrochloride for at least two passages prior to the screen. The pooled donor HUVEC and hMSC were cultured in endothelial cell growth medium 2 (PromoCell, Heidelberg, Germany, cat. C-22011) and mesenchymal stem cell growth medium 2 (PromoCell, cat. C-28009), respectively. For all experiments, HUVEC and hMSC were used at passages </=5.
For the pre-screen, cell seeding densities were determined from a titration spanning the range from 5,000 to 313 cells per well. The mct-spheroids including 60% malignant cells, 25% HUVEC and 15% MSC dispensed as a mixture into U-bottom Ultra-Low Attachment 384-well plates (Corning, NY)
High-throughput Drug Combination Screening.
Prior to their inoculation into 384-well plates, malignant cells, HUVEC, and hMSC were removed from T flasks using TrypLE express (Thermo Fisher Scientific, cat. 12605036) and harvested by centrifugation for 5 min at 233 x g. […]
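Further: spheroids exposed to drugs for 7 days before readout.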

Q: For `CC(=O)Nc1cccc(-n2c(=O)n(C3CC3)c(=O)c3c(Nc4ccc(I)cc4F)n(C)c(=O)c(C)c32)c1` + CC(C)NCC(C(=O)N1CCN(c2ncnc3c2C(C)CC3O)CC1)c1ccc(Cl)cc1, which IC50 (second compound 0.3 µM) is on record?
A: The IC50 was 4610 pM.

Q: What about the IC50 (second compound 0.949 µM) of the same compound?
A: The IC50 was 1650 pM.

Q: And the IC50 (second compound 3 µM)?
A: Its IC50 is 213 pM.

Q: And the IC50 (second compound 9.49 µM)?
A: The IC50 was under 94.9 pM.

Q: And the IC50 (second compound 30 µM)?
A: Its IC50 is under 94.9 pM.

Q: And the viability, T/C (second compound 0.3 µM, first compound 94.9 pM)?
A: The viability, T/C was 131%.

Q: And the viability, T/C (second compound 0.3 µM, first compound 0.0003 µM)?
A: The viability, T/C was 132%.

Q: And the viability, T/C (second compound 0.3 µM, first compound 0.000949 µM)?
A: Its viability, T/C is 125%.

Q: And the viability, T/C (second compound 0.3 µM, first compound 0.003 µM)?
A: The viability, T/C was 69.9%.

Q: What about the viability, T/C (second compound 0.3 µM, first compound 0.00949 µM) of the same compound?
A: Its viability, T/C is 16.6%.

Q: What about the viability, T/C (second compound 0.3 µM, first compound 0.03 µM) of the same compound?
A: Its viability, T/C is 3.1%.

Q: What about the viability, T/C (second compound 0.949 µM, first compound 94.9 pM) of the same compound?
A: The viability, T/C was 134%.

Q: What about the viability, T/C (second compound 0.949 µM, first compound 0.0003 µM) of the same compound?
A: The viability, T/C was 130%.

Q: What about the viability, T/C (second compound 0.949 µM, first compound 0.000949 µM) of the same compound?
A: The viability, T/C was 69.7%.

Q: What about the viability, T/C (second compound 0.949 µM, first compound 0.003 µM) of the same compound?
A: The viability, T/C was 28.1%.

Q: And the viability, T/C (second compound 0.949 µM, first compound 0.00949 µM)?
A: The viability, T/C was 9.36%.

Q: And the viability, T/C (second compound 0.949 µM, first compound 0.03 µM)?
A: Its viability, T/C is 1.03%.

Q: What about the viability, T/C (second compound 3 µM, first compound 94.9 pM) of the same compound?
A: Its viability, T/C is 57.9%.

Q: And the viability, T/C (second compound 3 µM, first compound 0.0003 µM)?
A: Its viability, T/C is 47.6%.

Q: What about the viability, T/C (second compound 3 µM, first compound 0.000949 µM) of the same compound?
A: Its viability, T/C is 25.3%.

Q: What about the viability, T/C (second compound 3 µM, first compound 0.003 µM) of the same compound?
A: The viability, T/C was 11.9%.

Q: What about the viability, T/C (second compound 3 µM, first compound 0.00949 µM) of the same compound?
A: Its viability, T/C is 4.2%.

Q: And the viability, T/C (second compound 3 µM, first compound 0.03 µM)?
A: The viability, T/C was 0.83%.

Q: What about the viability, T/C (second compound 9.49 µM, first compound 94.9 pM) of the same compound?
A: Its viability, T/C is 22%.

Q: And the viability, T/C (second compound 9.49 µM, first compound 0.0003 µM)?
A: Its viability, T/C is 18.4%.

Q: What about the viability, T/C (second compound 9.49 µM, first compound 0.000949 µM) of the same compound?
A: Its viability, T/C is 12.3%.

Q: And the viability, T/C (second compound 9.49 µM, first compound 0.003 µM)?
A: Its viability, T/C is 6.63%.

Q: What about the viability, T/C (second compound 9.49 µM, first compound 0.00949 µM) of the same compound?
A: Its viability, T/C is 2.23%.

Q: What about the viability, T/C (second compound 9.49 µM, first compound 0.03 µM) of the same compound?
A: Its viability, T/C is 1.12%.

Q: What about the viability, T/C (second compound 30 µM, first compound 94.9 pM) of the same compound?
A: Its viability, T/C is 10.7%.

Q: And the viability, T/C (second compound 30 µM, first compound 0.0003 µM)?
A: Its viability, T/C is 9.94%.

Q: What about the viability, T/C (second compound 30 µM, first compound 0.000949 µM) of the same compound?
A: Its viability, T/C is 6.33%.

Q: What about the viability, T/C (second compound 30 µM, first compound 0.003 µM) of the same compound?
A: Its viability, T/C is 3.43%.

Q: And the viability, T/C (second compound 30 µM, first compound 0.00949 µM)?
A: The viability, T/C was 1.53%.

Q: What about the viability, T/C (second compound 30 µM, first compound 0.03 µM) of the same compound?
A: The viability, T/C was 1.15%.
